Values quoted from earlier work in US20120277693A1, “METHOD AND APPARATUS FOR IMPROVING THE APPEARANCE OF NAILS AFFECTED BY ONYCHOMYCOSIS THROUGH THE TOPICAL APPLICATION OF AN AQUEOUS SOLUTION CONTAINING BORIC ACID AND CAMPHOR OR OTHER TERPENES” (priority 2009, published 2012).

What was measured:
fungal nail infection = settings: topical lacquer painted daily on infected nails
[1] = in boiling water; believed to be approximately; also printed as 280 g/L or 4.53 mole/L

SMILES | patients in whom the treatment is effective (fungal nail infection) | boric acid concentration, supersaturated [1]
Cc1cc(C2CCCCC2)n(O)c(=O)c1 [ciclopirox] | less than 10% | 
OB(O)O [boric acid] |  | approximately 28%
